From patent publication US20160257986A1, “Bacterial Diagnosis” (SRI INTERNATIONAL, priority 2013, published 2016)

Experiments:
Assay type in all cases: cell-based
[1] = test system: P. aeruginosa (ATCC 27853); assay: Simultaneous antibiotic susceptibility (DHR 123) and species identification (anti-P. aeruginosa antibody) by flow cytometry; conditions: dihydrorhodamine 123 5 μM; 3 hour and 4 hour timepoints
Protocol: Cultures of P. aeruginosa (ATCC 27853) were inoculated in 3 ml Mueller-Hinton broth (MHB) with an OD600 of 0.06. After 2 hours at 37 C, the cultures were at OD600 of 0.150. At time =0 hours, a test antibiotic (ciprofloxacin) or vehicle (DMSO) was added to each culture along with dihydrorhodamine 123 at 5 μM final concentration. At 3 hour and 4 hour timepoints,1 mL of the P. aeruginosa cells were centrifuged and resuspended in FACS buffer with a primary anti-Pseudomonas antibody (rabbit polyclonal Anti-Pseudomonas antibody (ab68538, abcam, Cambridge, Mass.)), and incubated for 15 minutes. The tubes were then centrifuged and resuspended in FACS buffer with a secondary antibody (goat anti-rabbit labeled with Cy7 dye) for another 15 minutes. The samples were then run directly on a FACScaliber flow cytometer for analysis.

[2] = test system: P. aeruginosa (ATCC 27853); assay: MIC of ciprofloxacin against P. aeruginosa; conditions: Pseudomonas aeruginosa, ATCC27853
E. coli (ATCC 25922) = assay: MIC of norfloxacin against E. coli; conditions: Escherichia coli, ATCC25922

MIC [2]	MIC (E. coli (ATCC 25922))	Compound	response of DHR 123 labeling to antibiotic [1]
0.25 µg/mL		O=C(O)c1cn(C2CC2)c2cc(N3CCNCC3)c(F)cc2c1=O [ciprofloxacin]	dose-dependent response
	0.064 µg/mL	CCn1cc(C(=O)O)c(=O)c2cc(F)c(N3CCNCC3)cc21 [norfloxacin]	
